Data taken from ChEMBL document CHEMBL1201862, “PubChem BioAssay data set” (2004).
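Each compound was tested at five concentrations against cells in 96-well plates for 48 hours. The concentration for 50% growth inhibition is given as GI50.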 Active and inactive are the calls of the source. Cut-off read from the data, not from the text of the source: active = GI50 up to about 1.1 µM and inactive = higher.

Experiments:
Experiment in all cases: NCI-60 cell line screen, 48 h
ACHN = tested on: ACHN
MOLT-4 = tested on: MOLT-4
SW-620 = tested on: SW-620
PC-3 = tested on: PC-3
HOP-92 = tested on: HOP-92
BT-549 = tested on: BT-549
RXF 393 = tested on: RXF 393
K562 = tested on: K562
MDA-MB-231 = tested on: MDA-MB-231
DU-145 = tested on: DU-145
M14 = tested on: M14
MDA-MB-435 = tested on: MDA-MB-435
EKVX = tested on: EKVX
LOX IMVI = tested on: LOX IMVI
SK-MEL-28 = tested on: SK-MEL-28
KM12 = tested on: KM12
SK-OV-3 = tested on: SK-OV-3
SR = tested on: SR
SNB-75 = tested on: SNB-75

| Compound | GI50 (ACHN) | GI50 (MOLT-4) | GI50 (SW-620) | GI50 (PC-3) | GI50 (HOP-92) | GI50 (BT-549) | GI50 (RXF 393) | GI50 (K562) | GI50 (MDA-MB-231) | GI50 (DU-145) | GI50 (M14) | GI50 (MDA-MB-435) | GI50 (EKVX) | GI50 (LOX IMVI) | GI50 (SK-MEL-28) | GI50 (KM12) | GI50 (SK-OV-3) | GI50 (SR) | GI50 (SNB-75) |
| --- | --- | --- | --- | --- | --- | --- | --- | --- | --- | --- | --- | --- | --- | --- | --- | --- | --- | --- | --- |
| COC(=O)C1=C(C(=O)OC)SC2(S1)C1=C(CCCC1)SC(C(=O)OC)=C2C(=O)OC | 6.05 µM (inactive) | 1.93 µM (inactive) | 2.09 µM (inactive) | 5.02 µM (inactive) | 7.82 µM (inactive) | 11.7 µM (inactive) | 2.33 µM (inactive) | 1.62 µM (inactive) | 15.8 µM (inactive) | 1.64 µM (inactive) | 16.9 µM (inactive) | 2.81 µM (inactive) | 13.3 µM (inactive) | 2.83 µM (inactive) | 9.29 µM (inactive) | 5.74 µM (inactive) | 14.9 µM (inactive) |  |  |
| COc1ccc(OC)c(C23CCCC(C2)N(C)CC3)c1 (configuration not stated) | 26.9 µM (inactive) | 32.1 µM (inactive) |  | 16.4 µM (inactive) |  | 30.8 µM (inactive) | 29.9 µM (inactive) | 17 µM (inactive) | 21.3 µM (inactive) | 32.7 µM (inactive) | 17.6 µM (inactive) | 20.1 µM (inactive) | 43.6 µM (inactive) |  |  | 18.4 µM (inactive) |  | 18.4 µM (inactive) |  |
| O=C(/C=C/c1ccc(O)c(O)c1)NCCc1ccc(-c2ccccc2)cc1 |  | 41.3 µM (inactive) | > 100 µM (inactive) | > 100 µM (inactive) |  | 74.5 µM (inactive) | 57.1 µM (inactive) | 27.2 µM (inactive) |  | > 100 µM (inactive) | 33.4 µM (inactive) |  | > 100 µM (inactive) |  | 59.8 µM (inactive) | 30.8 µM (inactive) | > 100 µM (inactive) |  | > 100 µM (inactive) |
| Cc1c(C)n(-c2ccccc2)c2nc(S(C)(=O)=O)nc(S(C)(=O)=O)c12 | 1.57 µM (inactive) | 1.48 µM (inactive) | 0.228 µM (active) | 5.06 µM (inactive) | 1.61 µM (inactive) |  | 0.475 µM (active) | 1.4 µM (inactive) | 5.73 µM (inactive) | 14.6 µM (inactive) | 1.62 µM (inactive) | 1.79 µM (inactive) | 5.41 µM (inactive) | 1.71 µM (inactive) | 2.53 µM (inactive) | 13.7 µM (inactive) | 19.6 µM (inactive) | 1 µM (active) | 19.3 µM (inactive) |
| Nc1nc(Cl)cc(/N=N\c2ccccc2)n1 | 26.6 µM (inactive) | 18.5 µM (inactive) | > 100 µM (inactive) |  | 2.33 µM (inactive) | 72.4 µM (inactive) | 30.3 µM (inactive) | 2.14 µM (inactive) | 22.1 µM (inactive) | > 100 µM (inactive) | 31.8 µM (inactive) | > 100 µM (inactive) | 37.2 µM (inactive) | 18.5 µM (inactive) | > 100 µM (inactive) | 92.5 µM (inactive) | 66.1 µM (inactive) | 9.79 µM (inactive) | 38.7 µM (inactive) |
| O=[N+]([O-])c1ccc(NC(=S)N/N=C(\c2ccccc2)c2ccccn2)cc1 | 1.16 µM (inactive) | < 0.0314 µM (active) |  | 0.229 µM (active) | 1.87 µM (inactive) | 1.63 µM (inactive) | 1.38 µM (inactive) | < 0.01 µM (active) | < 0.01 µM (active) | 1.66 µM (inactive) | 1.02 µM (active) | 1.74 µM (inactive) | 0.231 µM (active) |  | 1.22 µM (inactive) | 1.7 µM (inactive) | 1.4 µM (inactive) |  | 2.1 µM (inactive) |
| O=C1CC(Br)c2c(Br)sc(Br)c21 (configuration not stated) | 17.7 µM (inactive) | 0.906 µM (active) | 10.5 µM (inactive) | 19.1 µM (inactive) | 17.7 µM (inactive) | 19 µM (inactive) | 18.3 µM (inactive) | 7.73 µM (inactive) | 18.9 µM (inactive) | 20.7 µM (inactive) | 15.8 µM (inactive) | 20 µM (inactive) | 19.3 µM (inactive) | 14.3 µM (inactive) | 32 µM (inactive) | 22.9 µM (inactive) | 28.8 µM (inactive) |  | 23.1 µM (inactive) |
| COc1ccc(C2c3c(n(C)c(=O)n(C)c3=O)OC(N(C)C)(N(C)C)C2(F)F)cc1 (configuration not stated) | > 100 µM (inactive) | 2.92 µM (inactive) | > 100 µM (inactive) | > 100 µM (inactive) | > 100 µM (inactive) | > 100 µM (inactive) | > 100 µM (inactive) | 3.2 µM (inactive) | > 100 µM (inactive) | > 100 µM (inactive) | > 100 µM (inactive) | > 100 µM (inactive) | > 100 µM (inactive) | > 100 µM (inactive) | > 100 µM (inactive) | > 100 µM (inactive) | > 100 µM (inactive) |  | > 100 µM (inactive) |
| C=CC(O)(CBr)CCC(Br)C(=C)C (configuration not stated) | > 10 µM (inactive) | > 10 µM (inactive) | > 10 µM (inactive) | > 10 µM (inactive) |  | > 10 µM (inactive) | > 10 µM (inactive) | > 10 µM (inactive) | > 10 µM (inactive) | > 10 µM (inactive) | > 10 µM (inactive) | > 10 µM (inactive) | > 10 µM (inactive) | > 10 µM (inactive) | > 10 µM (inactive) | > 10 µM (inactive) | > 10 µM (inactive) |  | > 10 µM (inactive) |
| Cc1ccc(S(=O)(=O)N2CCc3cc(O)c([N+](=O)[O-])cc32)cc1 | > 100 µM (inactive) | > 100 µM (inactive) | > 100 µM (inactive) | > 100 µM (inactive) |  | > 100 µM (inactive) | > 100 µM (inactive) |  | > 100 µM (inactive) | > 100 µM (inactive) | > 100 µM (inactive) | > 100 µM (inactive) |  | > 100 µM (inactive) | > 100 µM (inactive) | > 100 µM (inactive) | > 100 µM (inactive) |  | > 100 µM (inactive) |
| CC1=NN=C(N)N/C1=C/C(Sc1ccc(Cl)cc1)c1cccs1 (configuration not stated) | 12.9 µM (inactive) | 13.6 µM (inactive) | 15.9 µM (inactive) | 12.8 µM (inactive) | 28.1 µM (inactive) | 37.9 µM (inactive) | 17.4 µM (inactive) | 13.9 µM (inactive) | > 10 µM (inactive) | 23.1 µM (inactive) | 13.4 µM (inactive) | 13.3 µM (inactive) | 14.4 µM (inactive) | 16.7 µM (inactive) | 17.5 µM (inactive) | 11.1 µM (inactive) | 12 µM (inactive) |  |  |
| NS(=O)(=O)c1ccc(CNC(=S)NC(=O)Nc2ccc(Cl)c(Cl)c2)cc1 | 17.5 µM (inactive) | 15.9 µM (inactive) | 18.9 µM (inactive) | 8.57 µM (inactive) | 17.7 µM (inactive) | 16.9 µM (inactive) | 27.9 µM (inactive) | 16.1 µM (inactive) | 10.6 µM (inactive) | 33.3 µM (inactive) | 19 µM (inactive) |  |  | 13.7 µM (inactive) | 21.6 µM (inactive) | 19 µM (inactive) | 19.6 µM (inactive) |  | 17.5 µM (inactive) |
| CCOc1ccc(NC(=O)/C(=N\NC(C)(C)C)C2C(=O)Nc3ccccc3[S+]2[O-])cc1 (configuration not stated) | > 100 µM (inactive) | > 100 µM (inactive) | > 100 µM (inactive) | > 100 µM (inactive) | > 100 µM (inactive) | > 100 µM (inactive) | > 100 µM (inactive) | > 100 µM (inactive) |  | > 100 µM (inactive) | > 100 µM (inactive) | > 100 µM (inactive) | > 100 µM (inactive) |  | > 100 µM (inactive) | > 100 µM (inactive) | > 100 µM (inactive) | 45.1 µM (inactive) | > 100 µM (inactive) |
| Cc1cccc2c1[nH]c1[nH]c(=O)[nH]c(=O)c12 | > 100 µM (inactive) | > 100 µM (inactive) | > 100 µM (inactive) |  | > 100 µM (inactive) | > 100 µM (inactive) | > 100 µM (inactive) | > 100 µM (inactive) | > 100 µM (inactive) | > 100 µM (inactive) | > 100 µM (inactive) | > 100 µM (inactive) | 83.8 µM (inactive) | > 100 µM (inactive) |  | > 100 µM (inactive) | > 100 µM (inactive) | > 100 µM (inactive) | 13 µM (inactive) |
| O=C1Sc2ccccc2NC1=C(C(=O)c1ccccc1)C(=O)c1ccccc1 | 22.1 µM (inactive) |  | 30.2 µM (inactive) | 20.6 µM (inactive) | 36.6 µM (inactive) | 35.9 µM (inactive) | 47.1 µM (inactive) | 2.88 µM (inactive) | 65.6 µM (inactive) | 21.2 µM (inactive) | 15.2 µM (inactive) | 40.6 µM (inactive) | 33.1 µM (inactive) | 13.5 µM (inactive) | > 100 µM (inactive) | 31.6 µM (inactive) | 21.7 µM (inactive) |  | 31.6 µM (inactive) |
| O=c1[nH]c(NCc2ccncc2)nc2[nH]cnc12 | > 100 µM (inactive) | > 100 µM (inactive) | > 100 µM (inactive) | > 100 µM (inactive) | > 100 µM (inactive) | > 100 µM (inactive) | > 100 µM (inactive) | > 100 µM (inactive) | > 100 µM (inactive) | > 100 µM (inactive) | > 100 µM (inactive) | > 100 µM (inactive) | > 100 µM (inactive) | > 100 µM (inactive) |  | > 100 µM (inactive) | > 100 µM (inactive) |  | > 100 µM (inactive) |
| N#CC(c1ccccc1)N(CCOCCOCCN(C(=O)c1ccccc1)C(C#N)c1ccccc1)C(=O)c1ccccc1 (configuration not stated) | > 100 µM (inactive) | 32.2 µM (inactive) | > 100 µM (inactive) | 37.5 µM (inactive) | 43.8 µM (inactive) | > 100 µM (inactive) | > 100 µM (inactive) | 56.6 µM (inactive) | > 100 µM (inactive) | > 100 µM (inactive) | > 100 µM (inactive) | 83 µM (inactive) | > 100 µM (inactive) | 91.2 µM (inactive) | 82.6 µM (inactive) | > 100 µM (inactive) | > 100 µM (inactive) |  | > 100 µM (inactive) |
